Data from US4965280A, “Antifungal carbinols” (E. I. Du Pont de Nemours and Company, priority 1989, dated 1990).
In brackets after ≈: the same amount, converted by molar mass. Read-outs that look alike come from different tables or passages of the source.

Legend:
Venturia inaequalis = test: Example A apple scab; format: in vivo; settings: read-out: disease control rating, Ex. A
Procedure: (§1) The test compounds were dissolved in acetone in an amount equal to 6% of the final volume and then suspended at a concentration of 100 or 20 ppm in purified water containing 250 ppm of the surfactant TREM 014 (polyhydric alcohol esters). This suspension was sprayed to the point of run-off on apple seedings.

[1] = tested on: Candida albicans ATCC 11651; test: In vitro antifungal MIC, microtiter broth dilution; settings: Candida albicans, ATCC11651, 24 h, read-out: MIC values, C. albicans, 30°, 24 hours
Pythium aphanadermatum = test: Example J cucumber damping off; format: in vivo; parameters: key to phytotoxicity entry, Ex. J: P: disease control was not measured due to phytoxicity; settings: 5 kg/ha
Procedure: […] Seeds and soil were then inoculated with a mixture of sand, cereal and mycelium of the fungus Pythium aphanadermatum, causal agent of cucumber damping off, and incubated in a growth chamber at 30° C. for 14 days. Disease ratings were then made.

[2] = tested on: Erysiphe graminis f. sp. tritici; test: Example D wheat powdery mildew; format: in vivo; settings: Blumeria graminis, 144 h, read-out: disease control rating, Ex. D
Procedure: as §1, with “wheat seedlings.” for “apple seedings.”

[3] = tested on: Cercosporidium personatum; test: Example B Peanut Late Leafspot; format: in vivo; settings: Nothopassalora personata, read-out: disease control rating, Ex. B
Procedure: as §1, with “peanut seedlings.” for “apple seedings.”

Pyricularia oryzae = test: whole plant or invertebrate; format: in vivo; settings: Pyricularia oryzae, 120 h; for pest or weed control at 100 ppm: read-out: disease control rating, Ex. E, 100 PPM; for pest or weed control at 20 ppm: read-out: disease control rating, Ex. E, 20 PPM
[4] = tested on: Aspergillus fumigatus ATCC 28214; test: In vitro antifungal MIC, microtiter broth dilution; settings: Aspergillus fumigatus, ATCC28214, 24 h, read-out: MIC values, A. fumigatus, 30°, 24 hours
Puccinia recondita = test: Example G wheat leaf rust; format: in vivo; settings: read-out: disease control rating, Ex. G
Plasmorpara viticola = test: Example I grape downy mildew; format: in vivo; settings: read-out: disease control rating, Ex. I
Procedure: as §1, with “grape seedlings.” for “apple seedings.”

Botrytis cinerea = test: Example C bean grey mold; format: in vivo; settings: Botrytis cinerea, 24 h, read-out: disease control rating, Ex. C
Procedure: as §1, with “broad bean seedlings.” for “apple seedings.”

[5] = tested on: Candida albicans ATCC 11651; test: In vivo systemic Candida infection in mice, primary assay; parameters: species or system Candida albicans; CF-1 female mice; settings: Candida albicans, 150 mg/kg per day, read-out: % Survival
From the text: The […] activity of test compounds is based on the percent (%) survival of infected animals receiving test or standard agent compared to that in an infected untreated group (Table 6). The in vivo assays are chronic systemic infections lethal to mice within 7 days post infection, [J. Barnes, et al. Lab Investigation, 49 460-467 (1963), and T. Rogers and E. Balish, Infection and Immunity, 14 33-38 (1976)].
Candida albicans ATCC 11651, from a frozen stock culture (10^9 organisms/ml) maintained at -70°, is diluted in saline to 1×10^7 organisms/ml and 0.2 ml inoculated intravenously (caudal vein) into 20.0 gm CF-1 female mice (Charles River).
Test compounds are routinely solubilized in 0.25% (w/v) methylcellulose (Methocel®) but for those compounds difficult to solubilize 10% (w/v) Emulophor® (EL620 GAF Corp.) is used. The standard antifungal agents, amphotericin B (Fungizone®) in water and ketoconazole (Nizoral®) in Methocel®, are administered at 1.0 mg/kg/day and 150 mg/kg/day, respectively.
In a primary assay, mice (10 per group) are infected with C. albicans, and receive test compounds at 50 or 150 mg/kg/day via the subcutaneous route. Animals are dosed with the test compound at 1 and 6 hour post-infection and then once daily for the next three days. Survival of mice in each group is recorded for 21 days.
Compounds which protect ≥70% of the infected animals for 14 days at a dose 150 mg/kg/day or less are viewed as active.

Rhizoctonia solani = test: Example F rice sheath blight; format: in vivo; settings: Rhizoctonia solani, 144 h, read-out: disease control rating, Ex. F
Procedure: as §1, with “rice seedlings.” for “apple seedings.”

Phytophthora infestans = test: whole plant or invertebrate; format: in vivo; settings: Phytophthora infestans, in Solanum lycopersicum, read-out: disease control rating, Ex. H, 100 PPM

C=C(c1ccc(F)cc1)C(O)(Cn1cncn1)c1ccccc1 (stereo not drawn) [Example 656]
pest or weed control at 100 ppm (Venturia inaequalis): 93%
MIC [1]: ≤ 0.4 mg/L
pest or weed control at 5000 g/ha (Pythium aphanadermatum; Pythium, 336 h, read-out: disease control rating, Ex. J): 0%
pest or weed control at 100 ppm [2]: 97%
pest or weed control at 100 ppm [3]: 100%
pest or weed control at 100 ppm (Pyricularia oryzae): 0%
MIC [4]: 12.5 mg/L (≈ 40.4 µM)
pest or weed control at 100 ppm (Puccinia recondita): 100%
pest or weed control at 100 ppm (Plasmorpara viticola): 20%
pest or weed control at 100 ppm (Botrytis cinerea): 88%
responders at 150 mg/kg ([5]; ATCC11651, 168 h, day 7): 100%
responders at 150 mg/kg ([5]; ATCC11651, 336 h, day 14): 90%
responders at 150 mg/kg ([5]; ATCC11651, 504 h, day 21): 40%
pest or weed control at 100 ppm (Rhizoctonia solani): 50%
pest or weed control at 100 ppm (Phytophthora infestans): 0%

C=C(c1ccc(F)cc1)C(O)(Cn1cncn1)c1cccc(C(F)(F)F)c1 (stereo not drawn) [Example 661]
pest or weed control at 20 ppm (Venturia inaequalis): 81%
MIC [1]: 1.6 mg/L (≈ 4.24 µM)
pest or weed control at 20 ppm [2]: 62%
pest or weed control at 20 ppm [3]: 79%
pest or weed control at 20 ppm (Pyricularia oryzae): 0%
pest or weed control at 100 ppm (Pyricularia oryzae): 0%
MIC [4]: 100 mg/L (≈ 265 µM)
pest or weed control at 20 ppm (Puccinia recondita): 100%
pest or weed control at 100 ppm (Plasmorpara viticola): 85%
pest or weed control at 20 ppm (Botrytis cinerea): 61%
pest or weed control at 100 ppm (Botrytis cinerea): 56%
responders at 150 mg/kg ([5]; ATCC11651, 168 h, day 7): 50%
responders at 150 mg/kg ([5]; ATCC11651, 336 h, day 14): 20%
responders at 150 mg/kg ([5]; ATCC11651, 504 h, day 21): 0%
pest or weed control at 20 ppm (Rhizoctonia solani): 10%
pest or weed control at 100 ppm (Rhizoctonia solani): 70%
pest or weed control at 100 ppm (Phytophthora infestans): 5%

C=C(c1ccc(F)cc1)C(O)(CC)Cn1cncn1 (stereo not drawn) [Example 668]
pest or weed control at 20 ppm (Venturia inaequalis): 65%
MIC [1]: 0.4 mg/L (≈ 1.53 µM)
pest or weed control at 20 ppm [2]: 31%
pest or weed control at 20 ppm [3]: 17%
pest or weed control at 20 ppm (Pyricularia oryzae): 1%
pest or weed control at 100 ppm (Pyricularia oryzae): 1%
MIC [4]: 50 mg/L (≈ 191 µM)
pest or weed control at 20 ppm (Puccinia recondita): 100%
pest or weed control at 100 ppm (Plasmorpara viticola): 31%
pest or weed control at 20 ppm (Botrytis cinerea): 31%
pest or weed control at 100 ppm (Botrytis cinerea): 76%
responders at 150 mg/kg ([5]; ATCC11651, 168 h, day 7): 70%
responders at 150 mg/kg ([5]; ATCC11651, 336 h, day 14): 10%
responders at 150 mg/kg ([5]; ATCC11651, 504 h, day 21): 0%
pest or weed control at 20 ppm (Rhizoctonia solani): 0%
pest or weed control at 100 ppm (Rhizoctonia solani): 0%
pest or weed control at 100 ppm (Phytophthora infestans): 22%

C=C(c1ccc(Cl)cc1)C(O)(Cn1cncn1)c1ccc(Cl)c(Cl)c1 (stereo not drawn) [Example 675]
pest or weed control at 20 ppm (Venturia inaequalis): 40%
MIC [1]: 0.1 mg/L (≈ 0.253 µM)
pest or weed control at 20 ppm [2]: 44%
pest or weed control at 20 ppm [3]: 0%
pest or weed control at 20 ppm (Pyricularia oryzae): 0%
pest or weed control at 100 ppm (Pyricularia oryzae): 0%
MIC [4]: 25 mg/L (≈ 63.3 µM)
pest or weed control at 20 ppm (Puccinia recondita): 16%
pest or weed control at 100 ppm (Plasmorpara viticola): 69%
pest or weed control at 20 ppm (Botrytis cinerea): 42%
pest or weed control at 100 ppm (Botrytis cinerea): 30%
responders at 150 mg/kg ([5]; ATCC11651, 168 h, day 7): 100%
responders at 150 mg/kg ([5]; ATCC11651, 336 h, day 14): 60%
responders at 150 mg/kg ([5]; ATCC11651, 504 h, day 21): 0%
pest or weed control at 20 ppm (Rhizoctonia solani): 0%
pest or weed control at 100 ppm (Rhizoctonia solani): 62%
pest or weed control at 100 ppm (Phytophthora infestans): 0%

C=C(c1ccc(C)cc1)C(O)(Cn1cncn1)c1ccc(F)cc1 (stereo not drawn) [Example 721]
pest or weed control at 100 ppm (Venturia inaequalis): 73%
MIC [1]: 0.4 mg/L (≈ 1.24 µM)
phytotoxicity entry, Ex. J (Pythium aphanadermatum): P
pest or weed control at 100 ppm [2]: 94%
pest or weed control at 100 ppm [3]: 89%
pest or weed control at 100 ppm (Pyricularia oryzae): 18%
MIC [4]: 12.5 mg/L (≈ 38.7 µM)
pest or weed control at 100 ppm (Puccinia recondita): 100%
pest or weed control at 100 ppm (Plasmorpara viticola): 0%
pest or weed control at 100 ppm (Botrytis cinerea): 95%
responders at 150 mg/kg ([5]; ATCC11651, 168 h, day 7): 100%
responders at 150 mg/kg ([5]; ATCC11651, 336 h, day 14): 30%
responders at 150 mg/kg ([5]; ATCC11651, 504 h, day 21): 30%
pest or weed control at 100 ppm (Rhizoctonia solani): 100%
pest or weed control at 100 ppm (Phytophthora infestans): 0%
